Data on 25 compounds can be found in patent US11066396B2 (priority 2016, dated 2021).

Where only a bound is given, the exact number is not on record here.

The target in this test is HDAC1 (Homo sapiens (Human), UniProt Q13547). The following applies: read-out: HDAC1 IC50.
Sequence of HDAC1 (Q13547 whole entry): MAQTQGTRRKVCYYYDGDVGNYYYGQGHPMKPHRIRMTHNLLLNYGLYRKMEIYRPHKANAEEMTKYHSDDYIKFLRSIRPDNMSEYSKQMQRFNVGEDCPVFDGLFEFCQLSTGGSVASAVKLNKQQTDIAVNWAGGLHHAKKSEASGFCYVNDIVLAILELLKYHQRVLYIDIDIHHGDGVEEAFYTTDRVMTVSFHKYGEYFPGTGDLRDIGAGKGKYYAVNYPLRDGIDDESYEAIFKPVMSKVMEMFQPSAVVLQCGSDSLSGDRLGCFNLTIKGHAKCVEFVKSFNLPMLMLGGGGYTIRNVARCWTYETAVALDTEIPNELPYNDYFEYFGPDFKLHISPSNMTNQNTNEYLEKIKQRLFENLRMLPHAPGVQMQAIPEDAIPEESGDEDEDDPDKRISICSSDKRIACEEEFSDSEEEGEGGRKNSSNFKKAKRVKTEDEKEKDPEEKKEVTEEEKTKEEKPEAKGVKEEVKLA
As to `FC(F)(F)c1nc(-c2ccnc(OCc3ncccc3Cl)c2)no1` [Example 217, 3-chloro-2-[({4-[5-(trifluoromethyl)-1,2,4-oxadiazol-3-yl]pyridin-2-yl}oxy)methyl]pyridine], the concentration for half-maximal inhibition (IC50) – broadly, the concentration that inhibits the measured activity by half – came out at 3800 nM.

Regarding `FC(F)(F)c1nc(-c2ccnc(OCc3c(Cl)nc4sccn34)c2)no1` [Example 208, 6-chloro-5-[({4-[5-(trifluoromethyl)-1,2,4-oxadiazol-3-yl]pyridin-2-yl}oxy)methyl]imidazo[2,1-b][1,3]thiazole], the IC50 was 3100 nM. The figure for `FC(F)(F)c1nc(-c2ccnc(OCc3ccnn3-c3cccnc3)c2)no1` [Example 212, 2-[(1-pyridin-3-yl-1H-pyrazol-5-yl)methoxy]-4-[5-(trifluoromethyl)-1,2,4-oxadiazol-3-yl]pyridine] is 1900 nM; for `Fc1ccc2c(c1)N(Cc1ccc(-c3noc(C(F)(F)F)n3)cn1)CCO2` [Example 347, 6-fluoro-4-({5-[5-(trifluoromethyl)-1,2,4-oxadiazol-3-yl]pyridin-2-yl}methyl)-3,4-dihydro-2H-1,4-benzoxazine] it is 600 nM.

`FC(F)(F)c1nc(-c2ccnc(OCc3cnc(Cl)cn3)c2)no1` [Example 214, 2-chloro-5-[({4-[5-(trifluoromethyl)-1,2,4-oxadiazol-3-yl]pyridin-2-yl}oxy)methyl]pyrazine]: the IC50 worked out at 1400 nM. For `O=C1CCc2ncccc2N1Cc1ccc(-c2noc(C(F)(F)F)n2)cn1` [Example 328, 1-({5-[5-(trifluoromethyl)-1,2,4-oxadiazol-3-yl]pyridin-2-yl}methyl)-3,4-dihydro-1,5-naphthyridin-2(1H)-one] the value was 580 nM; for `Cc1nc2cc(F)ccc2n1Cc1ccc(-c2noc(C(F)(F)F)n2)cn1` [Example 466, 5-fluoro-2-methyl-1-({5-[5-(trifluoromethyl)-1,2,4-oxadiazol-3-yl]pyridin-2-yl}methyl)-1H-benzimidazole], 840 nM.

As for `Cc1cc(COc2cc(-c3noc(C(F)(F)F)n3)ccn2)nn1CC(F)F` [Example 220, 2-{[1-(2,2-difluoroethyl)-5-methyl-1H-pyrazol-3-yl]methoxy}-4-[5-(trifluoromethyl)-1,2,4-oxadiazol-3-yl]pyridine], the IC50 was determined as 1200 nM. For `O=C1CSc2ccccc2N1Cc1ccc(-c2noc(C(F)(F)F)n2)cn1` [Example 463, 4-({5-[5-(trifluoromethyl)-1,2,4-oxadiazol-3-yl]pyridin-2-yl}methyl)-2H-1,4-benzothiazin-3(4H)-one] the value was 130 nM; for `Cc1noc([C@H]2CCCCN2c2ccc(-c3noc(C(F)(F)F)n3)c(Cl)c2)n1` [Example 18, (R)-3-(2-Chloro-4-(2-(3-methyl-1,2,4-oxadiazol-5-yl)piperidin-1-yl)phenyl)-5-(trifluoromethyl)-1,2,4-oxadiazole], over 15000 nM; for `FC(F)(F)c1nc(-c2ccnc(OCc3cncc(N4CCNCC4)n3)c2)no1` [Example 216, 2-piperazin-1-yl-6-[({4-[5-(trifluoromethyl)-1,2,4-oxadiazol-3-yl]pyridin-2-yl}oxy)methyl]pyrazine], 1100 nM. The figure for `FC(F)(F)c1nc(-c2ccc(CNc3cccc(-c4cnco4)c3)nc2)no1` [Example 360, 3-(1,3-oxazol-5-yl)-N-({5-[5-(trifluoromethyl)-1,2,4-oxadiazol-3-yl]pyridin-2-yl}methyl)aniline] is 7.6 nM; for `NC(=O)c1cccc(CCOc2cc(-c3noc(C(F)(F)F)n3)ccn2)c1` [Example 459, 3-[2-({4-[5-(trifluoromethyl)-1,2,4-oxadiazol-3-yl]pyridin-2-yl}oxy)ethyl]benzamide] it is 1800 nM. For `O=C1CCC(c2ccc(-c3noc(C(F)(F)F)n3)cc2)N1c1cccc(F)c1` (racemic) [Example 325, 1-(3-fluorophenyl)-5-{4-[5-(trifluoromethyl)-1,2,4-oxadiazol-3-yl]phenyl}pyrrolidin-2-one] the value was 2500 nM. As for `Cc1ccc2c3c(nn2c1)CCC(NCc1ccc(-c2noc(C(F)(F)F)n2)cc1)C3` (racemic) [Example 352, 8-methyl-N-({4-[5-(trifluoromethyl)-1,2,4-oxadiazol-3-yl]phenyl}methyl)-1,2,3,4-tetrahydropyrido[1,2-b]indazol-2-amine], the IC50 amounted to 44 nM. For `O=c1ccc2ccccc2n1Cc1ccc(-c2noc(C(F)(F)F)n2)cn1` [Example 460, 1-({5-[5-(trifluoromethyl)-1,2,4-oxadiazol-3-yl]pyridin-2-yl}methyl)quinolin-2(1H)-one] the value was 99 nM. For `Cn1nc(COc2cc(-c3noc(C(F)(F)F)n3)ccn2)cc1C(C)(C)C` [Example 224, 2-[(5-tert-butyl-1-methyl-1H-pyrazol-3-yl)methoxy]-4-[5-(trifluoromethyl)-1,2,4-oxadiazol-3-yl]pyridine] the value was 1200 nM; for `O=C(NCc1ccc(-c2noc(C(F)(F)F)n2)cc1)c1cccc(O)c1` [Example 205, 3-hydroxy-N-{4-[5-(trifluoromethyl)-1,2,4-oxadiazol-3-yl]benzyl}benzamide], 720 nM; for `FC(F)(F)Cn1nc(COc2cc(-c3noc(C(F)(F)F)n3)ccn2)cc1C1CC1` [Example 219, 2-{[5-cyclopropyl-1-(2,2,2-trifluoroethyl)-1H-pyrazol-3-yl]methoxy}-4-[5-(trifluoromethyl)-1,2,4-oxadiazol-3-yl]pyridine], 920 nM.

With `O=C1c2cc(F)ccc2CCN1Cc1ccc(-c2noc(C(F)(F)F)n2)cn1` [Example 327, 7-fluoro-2-({5-[5-(trifluoromethyl)-1,2,4-oxadiazol-3-yl]pyridin-2-yl}methyl)-3,4-dihydroisoquinolin-1(2H)-one], the IC50 is 640 nM. The figure for `CC1(Cc2ccc(-c3noc(C(F)(F)F)n3)cc2)C(=O)Nc2ccc(F)cc21` (stereo not shown) [Example 348, 5-fluoro-3-methyl-3-{4-[5-(trifluoromethyl)-1,2,4-oxadiazol-3-yl]benzyl}-1,3-dihydro-2H-indol-2-one] is 2400 nM; for `O=C1Nc2ccc(F)cc2C1Cc1ccc(-c2noc(C(F)(F)F)n2)cc1` (racemic) [Example 193, 5-fluoro-3-{4-[5-(trifluoromethyl)-1,2,4-oxadiazol-3-yl]benzyl}-1,3-dihydro-2H-indol-2-one] it is 710 nM; for `O=C1CCc2ccc(F)cc2N1Cc1ccc(-c2noc(C(F)(F)F)n2)cn1` [Example 323, 7-fluoro-1-({5-[5-(trifluoromethyl)-1,2,4-oxadiazol-3-yl]pyridin-2-yl}methyl)-3,4-dihydroquinolin-2(1H)-one] it is 53 nM. The figure for `O=C1CCc2cc(C(F)(F)F)ccc2N1Cc1ccc(-c2noc(C(F)(F)F)n2)cn1` [Example 464, 6-(trifluoromethyl)-1-({5-[5-(trifluoromethyl)-1,2,4-oxadiazol-3-yl]pyridin-2-yl}methyl)-3,4-dihydroquinolin-2(1H)-one] is 300 nM; for `O=c1ccc2ccc(F)cc2n1Cc1ccc(-c2noc(C(F)(F)F)n2)cc1` [Example 322, 7-fluoro-1-{4-[5-(trifluoromethyl)-1,2,4-oxadiazol-3-yl]benzyl}quinolin-2(1H)-one] it is 260 nM.
